Laboratory results reported in ChEMBL document CHEMBL1137480, “Synthesis and structure-activity relationship of 7-(substituted)-aminomethyl-4-quinolone-3-carboxylic acid derivatives” (2007).
In brackets after ≈: the same amount, converted by molar mass.

Assays:
Format in all cases: functional
[1] = system: Staphylococcus aureus; experiment: Antibacterial activity against Staphylococcus aureus 26003 after 24 hrs by agar dilution method
[2] = system: Salmonella; experiment: Antibacterial activity against […] 48107 after 24 hrs by agar dilution method
[3] = system: Shigella boydii; experiment: Antibacterial activity against Shigella boydii 51313 after 24 hrs by agar dilution method
[4] = system: Klebsiella pneumoniae; experiment: Antibacterial activity against Klebsiella pneumoniae 46101 after 24 hrs by agar dilution method
[5] = system: Streptococcus pneumoniae; experiment: Antibacterial activity against Streptococcus pneumoniae 31002 after 24 hrs by agar dilution method
[6] = system: Staphylococcus epidermidis; experiment: Antibacterial activity against Staphylococcus epidermidis 26069 after 24 hrs by agar dilution method

CN[C@H](CC(C)C)C(=O)N[C@H]1C(=O)N[C@@H](CC(N)=O)C(=O)N[C@H]2C(=O)N[C@H]3C(=O)N[C@H](C(=O)N[C@H](C(=O)O)c4cc(O)cc(O)c4-c4cc3ccc4O)[C@H](O)c3ccc(c(Cl)c3)Oc3cc2cc(c3O[C@@H]2O[C@H](CO)[C@@H](O)[C@H](O)[C@H]2O[C@H]2C[C@](C)(N)[C@H](O)[C@H](C)O2)Oc2ccc(cc2Cl)[C@H]1O [VANCOMYCIN]
MIC [1]: 0.39 µg/mL (≈ 0.269 µM) | MIC [2]: > 6.25 µg/mL | MIC [3]: > 6.25 µg/mL | MIC [4]: > 6.25 µg/mL | MIC [5]: 0.098 µg/mL (≈ 0.0676 µM) | MIC [6]: 0.78 µg/mL (≈ 0.538 µM)
